# From patent US6344487B1, “Treatment of insomnia” (priority 2000, dated 2002)
# Structures can show the parent of a compound that is named as a salt.
# Experiments:
# Format in all cases: in vivo
# Details in all cases: single patient
# [1] = tested on: onset insomnia (non-chronic); assay: Treatment of patient with onset insomnia (non-chronic), follow up
# Protocol: (§1) Administration of the compounds should take place within about one hour before bedtime. Again, the onset of the sedative effect will vary with the individual and the dosage prescribed.
# The patient suffers from onset insomnia (non-chronic). At the time of consultation, they have normal affect with no depression, anxiety or substance overuse. They are prescribed mirtazapine 10 mg hs.
# The patient suffers from onset insomnia (non-chronic). At the time of consultation, they have normal affect with no depression, anxiety or substance overuse. They are prescribed mirtazapine 7.5 mg hs.
# The patient suffers from onset insomnia (non-chronic). At the time of consultation, they have normal affect with no depression, anxiety or substance overuse. They are prescribed mitazapine 5 mg hs.
# The patient suffers from onset insomnia (non-chronic). At the time of consultation, they have normal affect with no depression, anxiety or substance overuse. They are prescribed mirtazapine 2 mg hs.
# The patient suffers from onset insomnia (non-chronic). At the time of consultation, they have normal affect with no depression, anxiety or substance overuse. They are prescribed nortriptyline 10 mg hs.
# The patient suffers from onset insomnia (non-chronic). At the time of consultation, they have normal affect with no depression, anxiety or substance overuse. They are prescribed nortriptyline 7.5 mg hs.
# The patient suffers from onset insomnia (non-chronic). At the time of consultation, they have normal affect with no depression, anxiety or substance overuse. They are prescribed nortriptyline 5 mg hs.
# The patient suffers from onset insomnia (non-chronic). At the time of consultation, they have normal affect with no depression, anxiety or substance overuse. They are prescribed nortriptyline 2 mg hs.
# [2] = tested on: maintenance insomnia (non-chronic); assay: Treatment of patient with maintenance insomnia (non-chronic), follow up
# Protocol: as §1
# The patient suffers from maintenance insomnia (non-chronic) At the time of consultation, they have normal affect with no depression, anxiety or substance overuse. They are prescribed mirtazapine 10 mg hs.
# The patient suffers from maintenance insomnia (non-chronic) At the time of consultation, they have normal affect with no depression, anxiety or substance overuse. They are prescribed mirtazapine 7.5 mg hs.
# The patient suffers from maintenance insomnia (non-chronic) At the time of consultation, they have normal affect with no depression, anxiety or substance overuse. They are prescribed mirtazapine 5 mg hs.
# The patient suffers from maintenance insomnia (non-chronic) At the time of consultation, they have normal affect with no depression, anxiety or substance overuse. They are prescribed mirtazapine 2 mg hs.
# The patient suffers from maintenance insomnia (non-chronic). At the time of consultation, they have normal affect with no depression, anxiety or substance overuse. They are prescribed nortriptyline 10 mg hs.
# The patient suffers from maintenance insomnia (non-chronic). At the time of consultation, they have normal affect with no depression, anxiety or substance overuse. They are prescribed nortriptyline 7.5 mg hs.
# The patient suffers from maintenance insomnia (non-chronic) At the time of consultation, they have normal affect with no depression, anxiety or substance overuse. They are prescribed nortriptyline 5 mg hs.
# The patient suffers from maintenance insomnia (non-chronic) At the time of consultation, they have normal affect with no depression, anxiety or substance overuse. They are prescribed nortriptyline 2 mg hs.
# [3] = tested on: insomnia, possibly due to a desynchronization of circadian rhythms ("jet-lag"); assay: Treatment of business traveler with insomnia possibly due to desynchronization of circadian rhythms (jet-lag), follow up
# Protocol: as §1
# The patient, a business traveler, suffers from insomnia, possibly due to a desynchronization of circadian rhythms (“jet-lag”). At the time of consultation, they have normal affect with no depression, anxiety or substance overuse. They are prescribed mirtazapine 10 mg hs.
# The patient, a business traveler, suffers from insomnia, possibly due to a desynchronization of circadian rhythms (“jet-lag”). At the time of consultation, they have normal affect with no depression, anxiety or substance overuse. They are prescribed mirtazapine 7.5 mg hs.
# The patient, a business traveler, suffers from insomnia, possibly due to a desynchronization of circadian rhythms (“jet-lag”). At the time of consultation, they have normal affect with no depression, anxiety or substance overuse. They are prescribed mirtazapine 5 mg hs.
# The patient, a business traveler, suffers from insomnia, possibly due to a desynchronization of circadian rhythms (“jet-lag”). At the time of consultation, they have normal affect with no depression, anxiety or substance overuse. They are prescribed mirtazapine 2 mg hs.
# The patient, a business traveler, suffers from insomnia, possibly due to a desynchronization of circadian rhythms (“jet-lag”). At the time of consultation, they have normal affect with no depression, anxiety or substance overuse. They are prescribed nortriptyline 10 mg hs.
# The patient, a business traveler, suffers from insomnia, possibly due to a desynchronization of circadian rhythms (“jet-lag”). At the time of consultation, they have normal affect with no depression, anxiety or substance overuse. They are prescribed nortriptyline 7.5 mg hs.
# The patient, a business traveler, suffers from insomnia, possibly due to a desynchronization of circadian rhythms (“jet-lag”). At the time of consultation, they have normal affect with no depression, anxiety or substance overuse. They are prescribed nortriptyline 5 mg hs.
# The patient, a business traveler, suffers from insomnia, possibly due to a desynchronization of circadian rhythms (“jet-lag”). At the time of consultation, they have normal affect with no depression, anxiety or substance overuse. They are prescribed nortriptyline 2 mg hs.
# [4] = tested on: maintenance insomnia (chronic); assay: Treatment of patient with maintenance insomnia (chronic), follow up
# Protocol: as §1
# The patient suffers from maintenance insomnia (chronic). At the time of consultation, they have normal affect with no depression, anxiety or substance overuse. They are prescribed mirtazapine 10 mg hs.
# The patient suffers from maintenance insomnia (chronic). At the time of consultation, they have normal affect with no depression, anxiety or substance overuse. They are prescribed mirtazapine 7.5 mg hs.
# The patient suffers from maintenance insomnia (chronic). At the time of consultation, they have normal affect with no depression, anxiety or substance overuse. They are prescribed mirtazapine 5 mg hs.
# The patient suffers from maintenance insomnia (chronic). At the time of consultation, they have normal affect with no depression, anxiety or substance overuse. They are prescribed mirtazapine 2 mg hs.
# The patient suffers from maintenance insomnia (chronic). At the time of consultation, they have normal affect with no depression, anxiety or substance overuse. They are prescribed nortriptyline 10 mg hs.
# The patient suffers from maintenance insomnia (chronic). At the time of consultation, they have normal affect with no depression, anxiety or substance overuse. They are prescribed nortriptyline 7.5 mg hs.
# The patient suffers from maintenance insomnia (chronic). At the time of consultation, they have normal affect with no depression, anxiety or substance overuse. They are prescribed nortriptyline 5 mg hs.
# The patient suffers from maintenance insomnia (chronic). At the time of consultation, they have normal affect with no depression, anxiety or substance overuse. They are prescribed nortriptyline 2 mg hs.
# onset insomnia (chronic) = assay: Treatment of patient with onset insomnia (chronic), follow up
# Protocol: as §1
# The patient suffers from onset insomnia (chronic). At the time of consultation, they have normal affect with no depression, anxiety or substance overuse. They are prescribed mirtazapine 10 mg hs.
# The patient suffers from onset insomnia (chronic). At the time of consultation, they have normal affect with no depression, anxiety or substance overuse. They are prescribed mirtazapine 7.5 mg hs.
# The patient suffers from onset insomnia (chronic). At the time of consultation, they have normal affect with no depression, anxiety or substance overuse. They are prescribed mitazapine 5 mg hs.
# The patient suffers from onset insomnia (chronic). At the time of consultation, they have normal affect with no depression, anxiety or substance overuse. They are prescribed mirtazapine 2 mg hs.
# The patient suffers from onset insomnia (chronic). At the time of consultation, they have normal affect with no depression, anxiety or substance overuse. They are prescribed nortriptyline 10 mg hs.
# The patient suffers from onset insomnia (chronic). At the time of consultation, they have normal affect with no depression, anxiety or substance overuse. They are prescribed nortriptyline 7.5 mg hs.
# The patient suffers from onset insomnia (chronic). At the time of consultation, they have normal affect with no depression, anxiety or substance overuse. They are prescribed nortriptyline 5 mg hs.
# The patient suffers from onset insomnia (chronic). At the time of consultation, they have normal affect with no depression, anxiety or substance overuse. They are prescribed nortriptyline 2 mg hs.
Compound,relief of onset insomnia at follow up ([1]; 2 mg hs),relief of onset insomnia at follow up ([1]; 5 mg hs),relief of onset insomnia at follow up ([1]; 7.5 mg hs),relief of onset insomnia at follow up ([1]; 10 mg hs),relief of insomnia at follow up ([2]; 2 mg hs),relief of insomnia at follow up ([2]; 5 mg hs),relief of insomnia at follow up ([2]; 7.5 mg hs),relief of insomnia at follow up ([2]; 10 mg hs),relief of insomnia at follow up ([3]; 2 mg hs),relief of insomnia at follow up ([3]; 5 mg hs),relief of insomnia at follow up ([3]; 7.5 mg hs),relief of insomnia at follow up ([3]; 10 mg hs),relief of insomnia at follow up ([4]; 2 mg hs),relief of insomnia at follow up ([4]; 5 mg hs),relief of insomnia at follow up ([4]; 7.5 mg hs),relief of insomnia at follow up ([4]; 10 mg hs),relief of onset insomnia at follow up (onset insomnia (chronic); 2 mg hs),relief of onset insomnia at follow up (onset insomnia (chronic); 5 mg hs),relief of onset insomnia at follow up (onset insomnia (chronic); 7.5 mg hs),relief of onset insomnia at follow up (onset insomnia (chronic); 10 mg hs)
"CNCCC=C1c2ccccc2CCc2ccccc21 [nortriptyline, 1 propanamine,3-(10,11-dihydro-5H-dibenzo[a,d]cyclohepten-5-ylidene)-N-methyl-, hydrochloride]",relieves the onset insomnia and has their sleeping well,relieves the onset insomnia and has them sleeping well,relieves the onset insomnia and has them sleeping well,relieves the onset insomnia and has their sleeping well,relieves the insomnia and has their sleeping well,relieves the insomnia and has them sleeping well,relieves the insomnia and has them sleeping well,relieves the insomnia and has their sleeping well,relieves the insomnia and has their sleeping well,relieves the insomnia and has them sleeping well,relieves the insomnia and has them sleeping well,relieves the insomnia and has their sleeping well,relieves the insomnia and has their sleeping well,relieves the insomnia and has them sleeping well,relieves the insomnia and has them sleeping well,relieves the insomnia and has their sleeping well,relieves the onset insomnia and has their sleeping well,relieves the onset insomnia and has them sleeping well,relieves the onset insomnia and has them sleeping well,relieves the onset insomnia and has their sleeping well
"CN1CCN2c3ncccc3Cc3ccccc3C2C1 (stereo not shown) [mirtazapine, 1,2,3,4,10,14b-hexahydro-2-methylpyrazino [2,1-a]pyrido [2,3-c]benzazepine]",relieves the onset insomnia and has them sleeping well,relieves the onset insomnia and has them sleeping well,relieves the onset insomnia and has them sleeping well,relieves the onset insomnia and has their sleeping well,relieves the insomnia and has them sleeping well,relieves the insomnia and has them sleeping well,relieves the insomnia and has them sleeping well,relieves the insomnia and has their sleeping well,relieves the insomnia and has them sleeping well,relieves the insomnia and has them sleeping well,relieves the insomnia and has them sleeping well,relieves the insomnia and has their sleeping well,relieves the insomnia and has them sleeping well,relieves the insomnia and has them sleeping well,relieves the insomnia and has them sleeping well,relieves the insomnia and has their sleeping well,relieves the onset insomnia and has them sleeping well,relieves the onset insomnia and has them sleeping well,relieves the onset insomnia and has them sleeping well,relieves the onset insomnia and has their sleeping well
